Results reported in PubChem BioAssay AID256 (DTP/NCI, 2004).
“And” between values parts separate entries of the source, which are not always exact repeats. Equal values may be shown once. Toxic doses and inconclusive results are not listed.

Test system: CD2F1 mice, L1210 leukemia ip, survival T/C
Experiment: NCI In Vivo Anticancer Drug Screen. Data for tumor model L1210 Leukemia (intraperitoneal) in CD2F1 (CDF1) mice
Details: endpoint: mean survival time, higher = longer survival
Outline: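 In this screen, transplantable tumors were grown in mice given either the compound or its vehicle. Results were expressed as the treated measurement relative to the control measurement.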

[1] = dose: 100.0 mg/kg/injection, schedule: Q04DX003 (ip), vehicle: saline with Tween-80
[2] = dose: 200.0 mg/kg/injection, schedule: Q01DX009 (ip), vehicle: Klucel (hydroxypropylcellulose) (HPC)
[3] = dose: 200.0 mg/kg/injection, schedule: Q04DX003 (ip), vehicle: saline with Tween-80
[4] = dose: 400.0 mg/kg/injection, schedule: Q04DX003 (ip), vehicle: saline with Tween-80
[5] = dose: 12.5 mg/kg/injection, schedule: Q01DX009 (ip), vehicle: saline with Tween-80
[6] = dose: 25.0 mg/kg/injection, schedule: Q01DX009 (ip), vehicle: saline with Tween-80
[7] = dose: 50.0 mg/kg/injection, schedule: Q01DX009 (ip), vehicle: saline with Tween-80
[8] = dose: 100.0 mg/kg/injection, schedule: Q01DX009 (ip), vehicle: saline with Tween-80
[9] = dose: 200.0 mg/kg/injection, schedule: Q01DX009 (ip), vehicle: saline with Tween-80
[10] = dose: 100.0 mg/kg/injection, schedule: Q01DX001 (ip), vehicle: saline with Tween-80
[11] = dose: 400.0 mg/kg/injection, schedule: Q01DX009 (ip), vehicle: saline with Tween-80
[12] = dose: 25.0 mg/kg/injection, schedule: Q04DX003 (ip), vehicle: saline with Tween-80
[13] = dose: 50.0 mg/kg/injection, schedule: Q04DX003 (ip), vehicle: saline with Tween-80
[14] = dose: 75.0 mg/kg/injection, schedule: Q01DX001 (ip), vehicle: saline
[15] = dose: 200.0 mg/kg/injection, schedule: Q04DX002 (ip), vehicle: saline with Tween-80
[16] = dose: 400.0 mg/kg/injection, schedule: Q04DX002 (ip), vehicle: saline with Tween-80
[17] = dose: 200.0 mg/kg/injection, schedule: Q01DX001 (ip), vehicle: saline with Tween-80
[18] = dose: 400.0 mg/kg/injection, schedule: Q01DX001 (ip), vehicle: saline with Tween-80
[19] = dose: 100.0 mg/kg/injection, schedule: Q04DX002 (ip), vehicle: saline
[20] = dose: 200.0 mg/kg/injection, schedule: Q04DX002 (ip), vehicle: saline
[21] = dose: 400.0 mg/kg/injection, schedule: Q04DX002 (ip), vehicle: saline
[22] = dose: 100.0 mg/kg/injection, schedule: Q01DX009 (ip), vehicle: saline
[23] = dose: 200.0 mg/kg/injection, schedule: Q01DX009 (ip), vehicle: saline
[24] = dose: 400.0 mg/kg/injection, schedule: Q01DX009 (ip), vehicle: saline
[25] = dose: 100.0 mg/kg/injection, schedule: Q04DX003 (ip), vehicle: saline
[26] = dose: 200.0 mg/kg/injection, schedule: Q04DX003 (ip), vehicle: saline
[27] = dose: 400.0 mg/kg/injection, schedule: Q04DX003 (ip), vehicle: saline

## CCC(=O)OCC(=O)[C@]1(O)Cc2c(O)c3c(c(O)c2[C@@H](OC2CC(N)C(O)C(C)O2)C1)C(=O)c1c(OC)cccc1C3=O (stereo partly drawn)
dose: 0.25 mg/kg/injection, schedule: Q01DX009 (ip), vehicle: saline
  T/C: 112 % of control
dose: 0.5 mg/kg/injection, schedule: Q01DX009 (ip), vehicle: saline
  T/C: 122 % of control
dose: 1.5 mg/kg/injection, schedule: Q04DX003 (ip), vehicle: saline sonified
  T/C: 166 % of control
dose: 2.0 mg/kg/injection, schedule: Q01DX009 (ip), vehicle: saline
  T/C: 155 % of control
dose: 2.0 mg/kg/injection, schedule: Q04DX003 (ip), vehicle: saline with Tween-80
  T/C: 118 % of control
dose: 8.0 mg/kg/injection, schedule: Q01DX009 (ip), vehicle: saline
  T/C: 89 % of control

## CC(C)(C)CC(C)(C)c1ccc(OCCOc2ccc(NS(=O)(=O)c3ccc(N)cc3)cc2)cc1
dose: 100.0 mg/kg/injection, schedule: Q01DX009 (ip), vehicle: Klucel (hydroxypropylcellulose) (HPC)
  T/C: 95 % of control
[1]
  T/C: 97 % of control
[2]
  T/C: 96 % of control
[3]
  T/C: 97 % of control
dose: 400.0 mg/kg/injection, schedule: Q01DX009 (ip), vehicle: Klucel (hydroxypropylcellulose) (HPC)
  T/C: 93 % of control
[4]
  T/C: 95 % of control

## C/C=C/C=C1/OC(C)=C(C(C)=O)C1=O
[5]
  T/C: 96 % of control and 97 % of control
[6]
  T/C: 90 % of control and 95 % of control
[7]
  T/C: 90 % of control and 109 % of control
[8]
  T/C: 100 % of control and 106 % of control
[9]
  T/C: 100 % of control

## CC12CCC(=O)C(I)(I)C1=CCCC2=O (stereo not drawn)
[10]
  T/C: 91 % of control
[8]
  T/C: 88 % of control
[9]
  T/C: 88 % of control
[11]
  T/C: 87 % of control

## CCOC(=O)Nc1cc(NCCCCc2ccccc2)c([N+](=O)[O-])c(N)n1
dose: 12.5 mg/kg/injection, schedule: Q01DX001 (ip), vehicle: Klucel (hydroxypropylcellulose) (HPC)
  T/C: 97 % of control
dose: 25.0 mg/kg/injection, schedule: Q01DX001 (ip), vehicle: Klucel (hydroxypropylcellulose) (HPC)
  T/C: 103 % of control
dose: 50.0 mg/kg/injection, schedule: Q01DX001 (ip), vehicle: Klucel (hydroxypropylcellulose) (HPC)
  T/C: 89 % of control

## CCOC(=O)C(C#N)C(C(C)=O)C(=O)OCC (stereo not drawn)
[12]
  T/C: 103 % of control
[13]
  T/C: 98 % of control
[1]
  T/C: 97 % of control

## O=C(O)C(O)(c1ccccc1)C1CCCC1 (stereo not drawn)
[9]
  T/C: 109 % of control
[11]
  T/C: 112 % of control

## CCC(C(=O)OCCNC1CCCCC1)c1ccccc1 (stereo not drawn)
[14]
  T/C: 110 % of control

## O=c1cc[nH]c(=O)n1C1OC(CO)C(O)C1O (stereo not drawn)
dose: 100.0 mg/kg/injection, schedule: Q01DX005 (ip), vehicle: saline
  T/C: 104 % of control
dose: 200.0 mg/kg/injection, schedule: Q01DX005 (ip), vehicle: saline
  T/C: 113 % of control

## O=c1[nH]cc(S)c(=O)[nH]1
dose: 100.0 mg/kg/injection, schedule: Q04DX002 (ip), vehicle: saline with Tween-80
  T/C: 106 % of control
[15]
  T/C: 97 % of control
[16]
  T/C: 106 % of control

## CSCC1CCCCC12OCCO2 (stereo not drawn)
[10]
  T/C: 104 % of control
[17]
  T/C: 96 % of control
[18]
  T/C: 96 % of control

## CC(=O)C(C)(C)C
[19]
  T/C: 96 % of control
[20]
  T/C: 104 % of control
[21]
  T/C: 104 % of control

## CCOC(=O)C(=O)Nc1onc(C)c1NC(=O)C(=O)OCC
[1]
  T/C: 100 % of control
[3]
  T/C: 107 % of control
[4]
  T/C: 96 % of control

## CC1(C)C2CCC1(C(=O)O)C(=O)C2 (stereo not drawn)
[1]
  T/C: 92 % of control
[3]
  T/C: 92 % of control
[4]
  T/C: 87 % of control

## CC1(C(=O)O)OC12CCCCC2 (stereo not drawn)
[8]
  T/C: 107 % of control
[9]
  T/C: 108 % of control
[11]
  T/C: 108 % of control

## CC(=O)Nc1cc(C)ccc1O
[8]
  T/C: 98 % of control
[1]
  T/C: 96 % of control
[9]
  T/C: 95 % of control
[3]
  T/C: 104 % of control
[11]
  T/C: 87 % of control
[4]
  T/C: 90 % of control

## COc1ccc2[nH]c(-c3ccccc3)cc2c1
[1]
  T/C: 93 % of control
[3]
  T/C: 88 % of control
[4]
  T/C: 98 % of control

## Cc1cc(NC(=O)Nc2cc(Cl)ccc2C)no1
dose: 50.0 mg/kg/injection, schedule: Q01DX009 (ip), vehicle: Klucel (hydroxypropylcellulose) (HPC)
  T/C: 98 % of control
[2]
  T/C: 91 % of control

## CCOc1cc([N+](=O)[O-])c(OCC)cc1Cl
[8]
  T/C: 90 % of control
[1]
  T/C: 92 % of control
[9]
  T/C: 96 % of control
[3]
  T/C: 89 % of control
[11]
  T/C: 98 % of control
[4]
  T/C: 93 % of control

## O=C(O)CC1(Br)C(=O)Nc2ccccc21 (stereo not drawn)
dose: 100.0 mg/kg/injection, schedule: Q04DX003 (ip), vehicle: Klucel (hydroxypropylcellulose) (HPC)
  T/C: 98 % of control
dose: 200.0 mg/kg/injection, schedule: Q04DX003 (ip), vehicle: Klucel (hydroxypropylcellulose) (HPC)
  T/C: 102 % of control
dose: 400.0 mg/kg/injection, schedule: Q04DX003 (ip), vehicle: Klucel (hydroxypropylcellulose) (HPC)
  T/C: 98 % of control

## C1=Cc2ccccc2/C1=C/c1ccc(/C=C2\C=Cc3ccccc32)cc1
[8]
  T/C: 98 % of control
[9]
  T/C: 89 % of control
dose: 700.0 mg/kg/injection, schedule: Q01DX009 (ip), vehicle: saline with Tween-80
  T/C: 89 % of control

## COC1OCCC(C)O1 (stereo not drawn)
[19]
  T/C: 104 % of control
[20]
  T/C: 104 % of control
[21]
  T/C: 107 % of control

## CCCCCCCCCCCC(=O)N(C)CCS(=O)(=O)O
[22]
  T/C: 103 % of control
[23]
  T/C: 101 % of control
[24]
  T/C: 109 % of control

## Nc1ccc2cc(S(=O)(=O)O)cc(O)c2c1
[1]
  T/C: 98 % of control
[3]
  T/C: 102 % of control
[4]
  T/C: 98 % of control

## O=[N+]([O-])c1ccc(N/N=C(\CBr)c2ccccc2)c([N+](=O)[O-])c1
[10]
  T/C: 101 % of control
[17]
  T/C: 92 % of control
[18]
  T/C: 93 % of control

## COc1ccc(NC(=O)Nc2cccc([N+](=O)[O-])c2OC)cc1
[15]
  T/C: 86 % of control
[16]
  T/C: 96 % of control

## N#Cc1cccnc1.NCCNCCN.[Br-].[Pt+4]
dose: 12.5 mg/kg/injection, schedule: Q01DX009 (ip), vehicle: saline
  T/C: 95 % of control
dose: 25.0 mg/kg/injection, schedule: Q01DX009 (ip), vehicle: saline
  T/C: 103 % of control
dose: 50.0 mg/kg/injection, schedule: Q01DX009 (ip), vehicle: saline
  T/C: 101 % of control
[22]
  T/C: 98 % of control
[23]
  T/C: 98 % of control

## c1cc[c]([Ge]([c]2ccccc2)([c]2ccccc2)[c]2ccccc2)cc1
[25]
  T/C: 86 % of control
[26]
  T/C: 86 % of control
[27]
  T/C: 91 % of control

## CCCCOCN(COCCCC)C(C)Cc1ccccc1 (stereo not drawn)
[5]
  T/C: 94 % of control and 97 % of control
[6]
  T/C: 97 % of control and 102 % of control
[7]
  T/C: 93 % of control and 102 % of control
[8]
  T/C: 114 % of control and 95 % of control
[9]
  T/C: 123 % of control and 112 % of control

## Cc1cc(C)c(CCc2c(C)cc(C)cc2C)c(C)c1
[12]
  T/C: 96 % of control
[13]
  T/C: 98 % of control
[8]
  T/C: 89 % of control
[1]
  T/C: 100 % of control
[9]
  T/C: 96 % of control
[11]
  T/C: 93 % of control

## CC(CNC1CCCCC1)OC(=O)c1ccc(N)cc1 (stereo not drawn)
[14]
  T/C: 102 % of control

## CN(C)c1ccc(C(=O)c2ccc(N(C)C)cc2)cc1
[8]
  T/C: 96 % of control
[9]
  T/C: 102 % of control
[11]
  T/C: 109 % of control

## CCCOP(=O)(CCl)OCCC
[22]
  T/C: 95 % of control
[23]
  T/C: 100 % of control
[24]
  T/C: 97 % of control

## N/C(Cc1ccc(N)cc1)=N\O
[1]
  T/C: 110 % of control

## COC1OC2COCOC2C(OS(=O)(=O)c2ccc(C)cc2)C1OS(=O)(=O)c1ccc(C)cc1 (stereo not drawn)
[7]
  T/C: 103 % of control
[8]
  T/C: 97 % of control
[9]
  T/C: 97 % of control

## COc1cc(C)ccc1C1=CCCCC1
[25]
  T/C: 95 % of control
[26]
  T/C: 95 % of control
[27]
  T/C: 87 % of control

## Cc1sc2ncnc(Cl)c2c1C
[12]
  T/C: 103 % of control
[13]
  T/C: 114 % of control
[10]
  T/C: 97 % of control
[1]
  T/C: 94 % of control

## NC(=S)Nc1ccccn1
[12]
  T/C: 100 % of control
[13]
  T/C: 102 % of control
[1]
  T/C: 93 % of control

## CC(C)(C)/[N+]([O-])=N/O
[14]
  T/C: 101 % of control
